Assay results reported in US7932269B2, “Sulfonamides as orexin antagonists” (Hoffmann-La Roche Inc., priority 2008, dated 2011).
No end group written: not given here.

Tests used:
[1] = system: rat; conditions: icv administration; cited from earlier work
[2] = molecular target: T1, human orexin-2 (hOX2) receptors (Homo sapiens, UniProt O43614); test: Intracellular Ca2+ mobilization assay (FLIPR), orexin-A as agonist; assay type: cell-based; conditions: CHO(dHFr-) cells stably expressing hOX2; antagonist applied 25 min before EC80 of orexin-A; Kb=IC50/(1+[A]/EC50); read-out: Kb (μM) OX2R (human)
T1 construct: expressed in transfected cells
T1 sequence (O43614 1-444): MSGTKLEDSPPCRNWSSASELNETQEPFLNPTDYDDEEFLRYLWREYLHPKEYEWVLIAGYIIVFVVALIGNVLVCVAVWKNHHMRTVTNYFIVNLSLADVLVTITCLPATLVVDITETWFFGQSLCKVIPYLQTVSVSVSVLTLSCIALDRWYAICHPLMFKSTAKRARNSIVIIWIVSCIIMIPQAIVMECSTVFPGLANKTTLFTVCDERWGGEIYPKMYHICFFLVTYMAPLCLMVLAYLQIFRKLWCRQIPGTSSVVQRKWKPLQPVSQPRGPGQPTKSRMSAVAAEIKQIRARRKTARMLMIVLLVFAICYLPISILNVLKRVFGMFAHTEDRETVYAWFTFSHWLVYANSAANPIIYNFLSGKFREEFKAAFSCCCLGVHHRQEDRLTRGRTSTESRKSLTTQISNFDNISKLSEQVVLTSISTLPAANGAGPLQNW
Protocol: Intracellular Ca^2+ Mobilization Assay
The Chinese Hamster Ovary (dHFr-) mutant cell line stably expressing human orexin-1 (hOX1) or human orexin-2 (hOX2) receptors were maintained in Dulbecco's Modified Eagle Medium (1X) with GlutaMax™ 1, 4500 mg/L D-Glucose and Sodium Pyruvate (Catalog No. 31966-021, Invitrogen, Carlsbad, Calif.), 5% dialyzed fetal calf serum (Catalog No. 26400-044), 100 μg/ml penicillin and 100 μg/ml streptomycin. The cells were seeded at 5×10^4 cells/well in the poly-D-lysine treated, 96-well, black/clear-bottomed plates (Catalog No. BD356640, BD Biosciences, Palo Alto, Calif.). 24 h later, the cells were loaded for 1 hr at 37° C. with 4 μM Flou-4 acetoxymethyl ester (Catalog No. F-14202, Molecular Probes, Eugene, Oreg.) in FLIPR buffer (1×HBSS, 20 mM HEPES, 2.5 mM Probenecid). Hanks' Balanced Salt Solution (HBSS) (10X) (catalog No. 14065-049) and HEPES (1M) (catalog No. 15630-056) were purchased from Invitrogen, Carlsbad, Calif. Probenecid (250 mM) (catalog No. P8761) was from Sigma, Buchs, Switzerland. The cells were washed five times with FLIPR buffer to remove excess dye and intracellular calcium mobilization, [Ca^2+] were measured using a Fluorometric Imaging Plate Reader (FLIPR-96, Molecular Devices, Menlo Park, Calif.) as described previously (Malherbe et al., Mol. Pharmacol., 64, 823-832, 2003). Orexin A (catalog No.1455, Toris Cookson Ltd, Bristol, UK) was used as agonist. Orexin A ([…] stock solution in DMSO) was diluted in FLIPR buffer +0.1% BSA. The EC50 and EC80 values of orexin-A were measured daily from standard agonist concentration-response curves in CHO(dHFr-)-OX1R and —OX2R cell lines. All compounds were dissolved in 100% DMSO. Inhibition curves were determined by addition of 11 concentrations (0.0001-10 μM) of inhibitory compounds and using EC80 value of orexin-A as agonist (a concentration which gave 80% of max agonist response, determined daily). The antagonists were applied 25 min (incubation at 37° C.) before the application of the agonist. Responses were measured as peak increase in fluorescence minus basal, normalized to the maximal stimulatory effect induced by EC80 value of orexin-A or orexin-B. Inhibition curves were fitted according to the Hill equation: y=100/(1+(x/1C50)^nH), where nH=slope factor using Excel-fit 4 software (Microsoft). Kb values were calculated according to the following equation Kb=IC50/(1+[A]/EC50) where A is the concentration of agonist added which is very close to agonist EC80 value, and IC50 and EC50 values were derived from the antagonist inhibition and orexin-A or B agonist curves, respectively.

OX-A: orexin-A/hypocretin1, 33 amino acid hypothalamic neuropeptide derived from prepro-orexin (QPLPDCCRQKTCSCRLYELLHGAGNHAAGILTL; ends and bridges not checked; cysteine pairing not given here; UniProt O43612 34-66, looked up)
reduction of total REM sleep [1]: 84%

Cc1cccc(S(=O)(=O)N(CC(=O)N2CCCC2c2ccc(F)cc2)c2ccc(Cl)cc2)c1 (stereo not drawn) [Example 24, N-(4-Chloro-phenyl)-N-{2-[2-(4-fluoro-phenyl)-pyrrolidin-1-yl]-2-oxo-ethyl}-3-methyl-benzenesulfonamide]
Kb [2]: 0.0005 µM

O=C(CN(c1ccc(Cl)cc1)S(=O)(=O)c1ccc(Cl)cc1)N1CCCC1c1ccc(F)cc1 (stereo not drawn) [Example 19, 4-Chloro-N-(4-chloro-phenyl)-N-{2-[2-(4-fluoro-phenyl)-pyrrolidin-1-yl]-2-oxo-ethyl}-benzenesulfonamide]
Kb [2]: 0.002 µM

COc1ccc(S(=O)(=O)N(CC(=O)N2CCCC2c2ccccc2)c2ccc(F)cc2)cc1 (stereo not drawn) [Example 38, N-(4-Fluoro-phenyl)-4-methoxy-N-[2-oxo-2-(2-phenyl-pyrrolidin-1-yl)-ethyl]-benzenesulfonamide]
Kb [2]: 0.0096 µM

COc1ccccc1S(=O)(=O)N(CC(=O)N1CCCC1c1ccc(F)cc1)c1ccc(Cl)cc1 (stereo not drawn) [Example 52, N-(4-Chloro-phenyl)-N-{2-[2-(4-fluoro-phenyl)-pyrrolidin-1-yl]-2-oxo-ethyl}-2-methoxy-benzenesulfonamide]
Kb [2]: 0.0003 µM

O=C(CN(c1ccc(Cl)cc1)S(=O)(=O)c1ccc(F)cc1)N1CCCC1c1ccc(F)cc1 (stereo not drawn) [Example 40, N-(4-Chloro-phenyl)-4-fluoro-N-{2-[2-(4-fluoro-phenyl)-pyrrolidin-1-yl]-2-oxo-ethyl}-benzenesulfonamide]
Kb [2]: 0.0005 µM
